From patent US7074595B2, “General means of labeling protein by using wheat embryo cell-free protein synthesis system” (CellFree Sciences Co., Ltd., priority 2000, dated 2006)

Tests used:
Format in all cases: biochemical
Settings in all cases: NADPH
[1] = target: T1, dihydrofolate reductase (DHFR), natural-type methionine-containing (Met-DHFR) (Escherichia coli, UniProt P0ABQ4); experiment: enzymatic properties of DHFR (Table 1): Michaelis constant and maximum velocity, Met-DHFR
T1 construct: made in house; host or cells: wheat embryo extract cell-free protein synthesis (dialysis type)
T1 sequence (P0ABQ4 1-159): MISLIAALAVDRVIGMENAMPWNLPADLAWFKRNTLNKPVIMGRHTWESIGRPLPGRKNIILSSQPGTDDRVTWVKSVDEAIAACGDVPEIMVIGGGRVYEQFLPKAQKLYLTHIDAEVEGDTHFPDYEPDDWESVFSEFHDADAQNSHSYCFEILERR
Procedure: (§1) Purification of GFP and measurement of its activity by analysis of fluorescence spectrum using a fluorospectrophotometer were carried out in accordance with a method by Deschamps, et al. [Deschamps, J. R. et al., (1995) Protein Expression and Purification, 6, 555–558]. In the measurement of fluorescence spectrum, a fluorophotometer of type RF-5000 by Shimadzu was used. DHFR activity was measured by a method of Stanley, et al. [Methods. Enzymol. 18, 195–199 (1971)].
(§2) Then enzymatic properties of the selenomethionine-containing proteins purified as such were investigated biochemically. Fluorescence emission spectrum of a certain concentration of the purified GFP preparation shown in FIG. 2 excited at the wavelength of 395 nm was measured within a range of 410 nm to 600 nm and the result is shown in FIG. 3. As will be apparent from FIG. 3, there is no difference between the fluorescence emission spectra of GFP [(A) in FIG. 3] and selenomethionine GFP [(B) in FIG. 3]. Thus, the conclusion is that the change in GFP activity by substituting methionine residue with selenomethionine is not higher than the usual measurement sensitivity. […]

[2] = target: T2, dihydrofolate reductase (DHFR), selenomethionine-containing (SeMet-DHFR) (Escherichia coli, UniProt P0ABQ4); experiment: enzymatic properties of DHFR (Table 1): Michaelis constant and maximum velocity, SeMet-DHFR
T2 construct: made in house; host or cells: wheat embryo extract cell-free protein synthesis (dialysis type)
T2 sequence (P0ABQ4 1-159): T1 sequence (P0ABQ4 1-159)
Procedure: as §1, §2

[3] = target: T3, dihydrofolate reductase (DHFR), Natural-Type DHFR (Escherichia coli, UniProt P0ABQ4); experiment: enzymatic properties of DHFR (Table 2): Michaelis constant and maximum velocity, Natural-Type DHFR
T3 construct: made in house; host or cells: wheat embryo extract cell-free protein synthesis (dialysis type)
T3 sequence (P0ABQ4 1-159): T1 sequence (P0ABQ4 1-159)
Procedure: as §1
Then enzymatic properties of the purified heavy hydrogen-labeled DHFR were biochemically investigated by the same manner as in Example 1. As will be apparent from Table 2, both Vmax and Michaelis constant (Km) to NADPH which are parameters for enzymatic chemical property of natural-type DHFR and heavy hydrogen-labeled DHFR show no difference between both enzymes. Thus, it became clear that DHFR comprising heavy hydrogen-labeled amino acids maintained nearly the same enzymatic activity as the natural-type DHFR.

[4] = target: T4, dihydrofolate reductase (DHFR), Heavy Hydrogen-Labeled DHFR (20 kinds of heavy hydrogen-labeled L-amino acids) (Escherichia coli, UniProt P0ABQ4); experiment: enzymatic properties of DHFR (Table 2): Michaelis constant and maximum velocity, Heavy Hydrogen-Labeled DHFR
T4 construct: made in house; host or cells: wheat embryo extract cell-free protein synthesis (dialysis type)
T4 sequence (P0ABQ4 1-159): T1 sequence (P0ABQ4 1-159)
Procedure: as §1
With regard to the wheat embryo, that being contaminated with substantially no endosperm component prepared by the method mentioned in Example 1 was used. Preparation of an extract from wheat embryo was carried out by the exactly same method as Example 1 except that the solution for extraction and the solution used for gel filtration contained 20 kinds of heavy hydrogen-labeled L-amino acids instead of 20 kinds of selenomethionine-containing L-amino acids. Concentration of the prepared extract was adjusted to 170˜250 A260 nm (A260/A280=1.5).
Although the composition of the protein synthesis reaction solution is as same as that described in Example 1, it contains 20 kinds of heavy hydrogen-labeled L-amino acids instead of 20 kinds of selenomethionine-containing L-amino acids.
Then enzymatic properties of the purified heavy hydrogen-labeled DHFR were biochemically investigated by the same manner as in Example 1. […]

For `NC(=O)C1=CN([C@@H]2O[C@H](COP(=O)(O)OP(=O)(O)OC[C@H]3O[C@@H](n4cnc5c(N)ncnc54)[C@H](OP(=O)(O)O)[C@@H]3O)[C@@H](O)[C@H]2O)C=CC1` [NADPH, nicotinamide adenine dinucleotide phosphate (NADPH) of a reduced type], the “maximum velocity Vmax” value [1] was 0.143 A560 nm/μg/min, the “maximum velocity Vmax” value [2] was 0.137 A560 nm/μg/min and the Vmax [3] was 0.127 A560 nm/μg/min. The Vmax [4] was 0.261 A560 nm/μg/min.
